From the supplement of paper PMC10307832

Tests used:
Experiment in all cases: relative viability (nuclei count vs DMSO), 5 days (fraction); higher = more cells survive
Etoposide + Palbociclib = compound: COc1cc([C@@H]2c3cc4c(cc3[C@@H](O[C@@H]3O[C@@H]5CO[C@@H](C)O[C@H]5[C@H](O)[C@H]3O)[C@H]3COC(=O)[C@H]23)OCO4)cc(OC)c1O [Etoposide] + CC(=O)c1c(C)c2cnc(Nc3ccc(N4CCNCC4)cn3)nc2n(C2CCCC2)c1=O [Palbociclib] (partner 0.5 µM)
In short: (§1)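 For relative viability, nuclei counts in treated wells were divided by those in vehicle wells. Lung cancer cell lines had been pin-tool dosed in 1536-well plates the day after seeding and cultured for 5 days, then fixed and stained in one step (final 0.05% Triton X-100, 1% formaldehyde, 1 ug/ml Hoechst) and imaged at 4×. Doses were one drug alone or a fixed anchor-drug dose plus five library-drug doses (not always all listed) in √10 steps, and values are duplicate-plate medians.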

Bleomycin + Alpelisib = compound: CC1=C(N=C(N=C1N)[C@H](CC(=O)N)NC[C@@H](C(=O)N)N)C(=O)N[C@@H]([C@H](C2=CN=CN2)OC3C(C(C(C(O3)CO)O)O)OC4C(C(C(C(O4)CO)O)OC(=O)N)O)C(=O)N[C@H](C)[C@H]([C@H](C)C(=O)N[C@@H]([C@@H](C)O)C(=O)NCCC5=NC(=CS5)C6=NC(=CS6)C(=O)NCCC[S+](C)C)O [Bleomycin] + Cc1nc(NC(=O)N2CCC[C@H]2C(N)=O)sc1-c1ccnc(C(C)(C)C(F)(F)F)c1 [Alpelisib] (partner 2 µM); details: main component drawn
In short: as §1

Etoposide + AZD7762 = compound: COc1cc([C@@H]2c3cc4c(cc3[C@@H](O[C@@H]3O[C@@H]5CO[C@@H](C)O[C@H]5[C@H](O)[C@H]3O)[C@H]3COC(=O)[C@H]23)OCO4)cc(OC)c1O [Etoposide] + NC(=O)Nc1cc(-c2cccc(F)c2)sc1C(=O)N[C@H]1CCCNC1 [AZD7762] (partner 0.2 µM)
In short: as §1

Etoposide + Bortezomib = compound: COc1cc([C@@H]2c3cc4c(cc3[C@@H](O[C@@H]3O[C@@H]5CO[C@@H](C)O[C@H]5[C@H](O)[C@H]3O)[C@H]3COC(=O)[C@H]23)OCO4)cc(OC)c1O [Etoposide] + CC(C)C[C@H](NC(=O)[C@H](Cc1ccccc1)NC(=O)c1cnccn1)B(O)O [Bortezomib] (partner 0.002 µM)
In short: as §1

Cell Line	relative viability (Etoposide + Palbociclib; first compound 0.01 µM)	relative viability (Etoposide + Palbociclib; first compound 0.03162 µM)	relative viability (Etoposide + Palbociclib; first compound 0.1 µM)	relative viability (Etoposide + Palbociclib; first compound 0.3162 µM)	relative viability (Etoposide + Palbociclib; first compound 1 µM)	relative viability (Bleomycin + Alpelisib; first compound 0.01 µM)	relative viability (Bleomycin + Alpelisib; first compound 0.03162 µM)	relative viability (Bleomycin + Alpelisib; first compound 0.1 µM)	relative viability (Bleomycin + Alpelisib; first compound 0.3162 µM)	relative viability (Bleomycin + Alpelisib; first compound 1 µM)	relative viability (Etoposide + AZD7762; first compound 0.01 µM)	relative viability (Etoposide + AZD7762; first compound 0.03162 µM)	relative viability (Etoposide + AZD7762; first compound 0.1 µM)	relative viability (Etoposide + AZD7762; first compound 0.3162 µM)	relative viability (Etoposide + AZD7762; first compound 1 µM)	relative viability (Etoposide + Bortezomib; first compound 0.01 µM)	relative viability (Etoposide + Bortezomib; first compound 0.03162 µM)	relative viability (Etoposide + Bortezomib; first compound 0.1 µM)	relative viability (Etoposide + Bortezomib; first compound 0.3162 µM)	relative viability (Etoposide + Bortezomib; first compound 1 µM)
NCI-H1975	0.548	0.665	0.521	0.331	0.281	0.607	0.616	0.555	0.254	0.232	0.702	0.804	0.508	0.658	0.443	0.402	0.386	0.411	0.322	0.177
NCI-H1651	0.512	0.515	0.414	0.359	0.178	0.708	0.71	0.733	0.236	0.174	0.476	0.508	0.287	0.274	0.186	0.914	0.979	0.875	0.532	0.181
NCI-H460	0.131	0.11	0.111	0.0408	0.0313	0.294	0.243	0.136	0.0356	0.017	0.61	0.704	0.407	0.0776	0.0538	0.933	0.763	0.608	0.0494	0.0267
LCLC-103H	0.526	0.553	0.509	0.457	0.407	0.92	0.967	1.05	0.934	0.4	0.756	0.787	0.597	0.742	0.608	1.1	1.24	0.93	0.956	0.978
LCLC-97TM1	0.243	0.248	0.169	0.165	0.121	0.162	0.186	0.134	0.127	0.101	0.226	0.323	0.173	0.15	0.099	0.865	0.329	0.485	0.132	0.0671
NCI-H838	0.172	0.238	0.169	0.226	0.244	0.674	0.29	0.238	0.161	0.212	0.884	0.857	0.805	0.787	0.722	0.641	0.978	0.659	0.624	0.333
NCI-H1355	0.423	0.473	0.275	0.355	0.281	0.777	0.935	0.802	0.566	0.323	0.746	0.862	0.501	0.586	0.305	1.15	1.35	0.671	1.13	0.412
HOP-62	0.408	0.478	0.464	0.356	0.273	0.412	0.458	0.185	0.116	0.13	0.486	0.634	0.284	0.329	0.24	0.644	0.901	0.298	0.412	0.328
NCI-H2085	0.461	0.477	0.513	0.409	0.323	0.715	0.778	0.672	0.436	0.378	0.831	0.905	0.803	0.911	0.453	1.08	1.08	0.953	0.674	0.354
